This note sets out measurements from patent US20250206738A1, “WRN INHIBITORS” (Nimbus Wadjet, Inc., priority 2023, published 2025).

Test [1] addresses T1, human Werner helicase (WRN, Uniprot Q14191, amino acids 517-1235 with L1074F point mutation; WRN-BV08) (Homo sapiens, UniProt Q14191, L1074F).
T1 construct: Uniprot Q14191, amino acids 517-1235 with L1074F point mutation; 8xHis (C, cleaved yes); TEV cleavage site (ENLYFQG) (C, cleaved yes); made in house; host or cells: Sf9 insect cells (baculovirus, pFastBac)
The test can be described thus: WRN (BV08) ADP-Glo assay. In kind it is biochemical. To be noted: WRN-BV08 (aa 517-1235, L1074F); read-out: ADP-Glo_hWRN_IC50. In a few lines: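 WRN 517-1235 (L1074F, untagged, Sf9-expressed), 0.15 nM, preincubated with compound 15 min at 25 °C, then 60 min with […] and 0.1 nM DNA duplex in Bicine pH 7.5, 1 mM MgCl2, 1% DMSO. ADP-Glo luminescence; % inhibition vs NSC-617145 control, four-parameter IC50 fit.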
(In general: ADP-Glo turns the ADP formed in a reaction into a luminescent signal.)

The subject of test [2] is p21 induction in HCT 116 cells. The test can be described thus: p21 induction in cells (In-Cell Western, p21/GAPDH ratio). In kind it is cell-based. To be noted: Homo sapiens, HCT-116, 24 h, 24 h compound incubation, read-out: P21_EC50. In short, it runs like this:
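HCT 116 cells treated 24 h at 37° C with 11-point, 2-fold dilutions starting typically at 10 μM, in duplicate. Fixed cells immunostained for p21 and GAPDH; 800/700 nm ratio normalised between DMSO and reference WRN inhibitor controls as percent activation. EC50 from non-linear regression.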

SMILES strings stand for the structures. Where only a bound is given, the exact number is not on record here.

T1 sequence (Q14191 with tags, fused parts or gaps L1074F): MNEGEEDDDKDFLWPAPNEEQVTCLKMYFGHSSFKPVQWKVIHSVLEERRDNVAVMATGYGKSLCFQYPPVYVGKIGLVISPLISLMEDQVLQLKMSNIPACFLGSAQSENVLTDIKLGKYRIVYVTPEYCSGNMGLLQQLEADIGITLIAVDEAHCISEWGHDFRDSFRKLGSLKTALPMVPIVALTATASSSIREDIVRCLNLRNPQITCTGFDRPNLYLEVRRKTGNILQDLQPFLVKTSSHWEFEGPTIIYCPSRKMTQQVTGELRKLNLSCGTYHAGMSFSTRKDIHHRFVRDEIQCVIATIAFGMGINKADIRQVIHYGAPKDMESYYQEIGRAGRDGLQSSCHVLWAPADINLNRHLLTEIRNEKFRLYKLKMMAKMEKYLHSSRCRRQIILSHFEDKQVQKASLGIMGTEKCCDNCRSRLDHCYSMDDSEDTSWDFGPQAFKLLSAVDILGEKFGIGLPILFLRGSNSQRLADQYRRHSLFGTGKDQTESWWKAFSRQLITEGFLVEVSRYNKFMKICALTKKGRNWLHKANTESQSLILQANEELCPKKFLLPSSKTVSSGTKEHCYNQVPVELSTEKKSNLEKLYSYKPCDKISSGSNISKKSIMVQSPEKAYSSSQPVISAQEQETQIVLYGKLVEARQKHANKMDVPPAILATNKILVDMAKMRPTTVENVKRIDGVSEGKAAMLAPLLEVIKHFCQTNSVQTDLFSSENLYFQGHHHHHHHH

For the compound `CCc1c(N2CCN(C(=O)c3c(O)ccc4nc(C)oc34)CC2)c(=O)n2nc(-c3ccnc(OC)c3)nc2n1CC(=O)NC12CC(CC)(C1)C2` [I-215, 2-(5-ethyl-6-(4-(6-hydroxy-2-methylbenzo[d]oxazole-7-carbonyl)piperazin-1-yl)-2-(2-methoxypyridin-4-yl)-7-oxo-[1,2,4]triazolo[1,5-a]pyrimidin-4(7H)-yl)-N-(3-ethylbicyclo[1.1.1]pentan-1-yl)acetamide], the IC50 in test [1] fell in the range of 5 to 50 nM. For the same compound, the EC50 in test [2] was no more than 500 nM.
Regarding `CCc1c(N2CCN(C(=O)c3c(O)ccc4ncoc34)CC2)c(=O)n2nc(-c3ccnc(OC)c3)nc2n1CCNC(=O)C12CC(C(F)(F)F)(C1)C2` [I-34, N-(2-(5-ethyl-6-(4-(6-hydroxybenzo[d]oxazole-7-carbonyl)piperazin-1-yl)-2-(2-methoxypyridin-4-yl)-7-oxo-[1,2,4]triazolo[1,5-a]pyrimidin-4(7H)-yl)ethyl)-3-(trifluoromethyl)bicyclo[1.1.1]pentyl-1-carboxamide], the IC50 in test [1] was greater than 500 nM. Moreover, the EC50 in test [2] was greater than 5000 nM.
On the same counts, the results for `CCc1c(N2CCN(C(=O)c3c(O)cc(OC)cc3OC)CC2)c(=O)c2nn(-c3ccnc(OC)c3)nc2n1CC(=O)NC12CC(C3CC3)(C1)C2` [I-132, N-{3-cyclopropylbicyclo[1.1.1]pentan-1-yl}-2-{5-ethyl-6-[4-(2-hydroxy-4,6-dimethoxybenzoyl)piperazin-1-yl]-2-(2-methoxypyridin-4-yl)-7-oxo-2H,4H,7H-[1,2,3]triazolo[4,5-b]pyridin-4-yl}acetamide] are 5 to 50 nM and 2000 to 5000 nM.
Take `CCc1c(N2CCN(C(=O)c3ncnc(C)c3O)CC2)c(=O)n2nc(N(C)C)nc2n1CC(=O)NC12CC(C(F)(F)F)(C1)C2` [I-33, 2-(2-(dimethylamino)-5-ethyl-6-(4-(5-hydroxy-6-methylpyrimidine-4-carbonyl)piperazin-1-yl)-7-oxo-[1,2,4]triazolo[1,5-a]pyrimidin-4(7H)-yl)-N-(3-(trifluoromethyl)bicyclo[1.1.1]pentan-1-yl)acetamide]: the IC50 in test [1] fell in the range of 100 to 500 nM. Further, the EC50 in test [2] was greater than 5000 nM.
On the same counts, the results for `CCc1c(N2CCN(C(=O)c3c(O)ccc4ncoc34)CC2)c(=O)n2nc(-c3ccnc(OC)c3)nc2n1CC(=O)NC12CC(C3COC3)(C1)C2` [I-46, 2-(5-ethyl-6-(4-(6-hydroxybenzo[d]oxazole-7-carbonyl)piperazin-1-yl)-2-(2-methoxypyridin-4-yl)-7-oxo-[1,2,4]triazolo[1,5-a]pyrimidin-4(7H)-yl)-N-(3-(oxetan-3-yl)bicyclo[1.1.1]pentan-1-yl)acetamide] are 100 to 500 nM and greater than 5000 nM.
On the same counts, the results for `CCc1c(N2CCN(C(=O)c3ncnc(C)c3O)[C@H]3CC[C@@H]32)c(=O)c2nc(N(C)C)cnc2n1CC(=O)NC12CC(C3CCCC3)(C1)C2` [I-224, N-(3-cyclopentylbicyclo[1.1.1]pentan-1-yl)-2-(2-(dimethylamino)-6-ethyl-7-((1S,6S)-5-(5-hydroxy-6-methylpyrimidine-4-carbonyl)-2,5-diazabicyclo[4.2.0]octan-2-yl)-8-oxopyrido[2,3-b]pyrazin-5(8H)-yl)acetamide] are 5 to 50 nM and 500 to 2000 nM.
On the same counts, the results for `CCc1c(N2CCN(C(=O)c3ncnc(C)c3O)CC2)c(=O)n2nc(-c3ccnc(OC)c3)nc2n1CC(=O)NC12CC(C(C)C)(C1)C2` [I-40, 2-(5-ethyl-6-(4-(5-hydroxy-6-methylpyrimidine-4-carbonyl)piperazin-1-yl)-2-(2-methoxypyridin-4-yl)-7-oxo-[1,2,4]triazolo[1,5-a]pyrimidin-4(7H)-yl)-N-(3-isopropylbicyclo[1.1.1]pentan-1-yl)acetamide] are 5 to 50 nM and no more than 500 nM.
Take `CCc1c(N2CCN(C(=O)c3c(OC)ncc(C)c3O)CC2)c(=O)n2nc(C3=CCOCC3)nc2n1CC(=O)NC12CC(C(F)(F)F)(C1)C2` [I-236, 2-(2-(3,6-dihydro-2H-pyran-4-yl)-5-ethyl-6-(4-(4-hydroxy-2-methoxy-5-methylnicotinoyl)piperazin-1-yl)-7-oxo-[1,2,4]triazolo[1,5-a]pyrimidin-4(7H)-yl)-N-(3-(trifluoromethyl)bicyclo[1.1.1]pentan-1-yl)acetamide]: the IC50 in test [1] is 5 to 50 nM. Moreover, the EC50 in test [2] lay in the range of 2000 to 5000 nM.
For `CCc1c(N2CCN(C(=O)c3c(O)ccc4ncoc34)CC2)c(=O)n2nc(N(C)C)nc2n1CC(=O)NC12CC(C(C)C)(C1)C2` [I-43, 2-(2-(dimethylamino)-5-ethyl-6-(4-(6-hydroxybenzo[d]oxazole-7-carbonyl)piperazin-1-yl)-7-oxo-[1,2,4]triazolo[1,5-a]pyrimidin-4(7H)-yl)-N-(3-isopropylbicyclo[1.1.1]pentan-1-yl)acetamide], in test [1], the IC50 lay in the range of 5 to 50 nM. Moreover, the EC50 in test [2] lay in the range of 500 to 2000 nM.
For `CCc1c(N2CCN(C(=O)c3ncc4c(c3O)CCO4)CC2)c(=O)n2nc(C3=CCOCC3)nc2n1CC(=O)NC12CC(CC)(C1)C2` [I-14, 2-(2-(3,6-dihydro-2H-pyran-4-yl)-5-ethyl-6-(4-(4-hydroxy-2,3-dihydrofuro[2,3-c]pyridine-5-carbonyl)piperazin-1-yl)-7-oxo-[1,2,4]triazolo[1,5-a]pyrimidin-4(7H)-yl)-N-(3-ethylbicyclo[1.1.1]pentan-1-yl)acetamide], in that order: 5 to 50 nM and 500 to 2000 nM.
Turning to `CCc1c(N2CCN(C(=O)c3c(OC)ncc(C)c3O)CC2)c(=O)n2nc(-c3ccnc(OC)c3)nc2n1CC(=O)NC12CC(C3CC3)(C1)C2` [I-39, N-(3-cyclopropylbicyclo[1.1.1]pentan-1-yl)-2-(5-ethyl-6-(4-(4-hydroxy-2-methoxy-5-methylnicotinoyl)piperazin-1-yl)-2-(2-methoxypyridin-4-yl)-7-oxo-[1,2,4]triazolo[1,5-a]pyrimidin-4(7H)-yl)acetamide], the IC50 in test [1] fell in the range of 5 to 50 nM. The EC50 in test [2] is no more than 500 nM.
For `CCc1c(N2CCN(C(=O)c3c(O)ccc4ncoc34)CC2)c(=O)n2nc(-c3ccnc(OC)c3)nc2n1CC(=O)NC12CC(C(F)(F)C(F)F)(C1)C2` [I-41, 2-(5-ethyl-6-(4-(6-hydroxybenzo[d]oxazole-7-carbonyl)piperazin-1-yl)-2-(2-methoxypyridin-4-yl)-7-oxo-[1,2,4]triazolo[1,5-a]pyrimidin-4(7H)-yl)-N-(3-(1,1,2,2-tetrafluoroethyl)bicyclo[1.1.1]pentan-1-yl)acetamide], in that order: 5 to 50 nM and no more than 500 nM.
For `CCc1c(N2CCN(C(=O)c3ncnc(C)c3O)CC2)c(=O)n2nc(-c3ccnc(OC)c3)nc2n1CC(=O)NC1CC(C(F)(F)F)C1` (stereo not shown) [I-27, 2-(5-ethyl-6-(4-(5-hydroxy-6-methylpyrimidine-4-carbonyl)piperazin-1-yl)-2-(2-methoxypyridin-4-yl)-7-oxo-[1,2,4]triazolo[1,5-a]pyrimidin-4(7H)-yl)-N-(3-(trifluoromethyl)cyclobutyl)acetamide], in that order: 100 to 500 nM and greater than 5000 nM.
Consider `CCc1c(N2CCN(C(=O)c3ncc4c(c3O)CCO4)CC2)c(=O)n2nc(C3=CCOCC3)nc2n1CC(=O)NC12CC(C3CC3)(C1)C2` [I-9, N-(3-cyclopropylbicyclo[1.1.1]pentan-1-yl)-2-(2-(3,6-dihydro-2H-pyran-4-yl)-5-ethyl-6-(4-(4-hydroxy-2,3-dihydrofuro[2,3-c]pyridine-5-carbonyl)piperazin-1-yl)-7-oxo-[1,2,4]triazolo[1,5-a]pyrimidin-4(7H)-yl)acetamide], for which the IC50 in test [1] is 5 to 50 nM. Besides, in test [2], the EC50 lay in the range of 500 to 2000 nM.
